{
  "source": "ChEMBL document CHEMBL1201862",
  "about": "“PubChem BioAssay data set” (2004)",
  "assay_in_all_cases": "NCI anticancer screen, dose series, 48 h",
  "key": {"BT-549": {"test_system": "BT-549"}, "NCI-H226": {"test_system": "NCI-H226"}, "UACC-257": {"test_system": "UACC-257"}, "A498": {"test_system": "A498"}, "IGROV-1": {"test_system": "IGROV-1"}, "OVCAR-3": {"test_system": "OVCAR-3"}, "SW-620": {"test_system": "SW-620"}, "EKVX": {"test_system": "EKVX"}, "SF-268": {"test_system": "SF-268"}, "NCI-H522": {"test_system": "NCI-H522"}, "Hs-578T": {"test_system": "Hs-578T"}, "MDA-N": {"test_system": "MDA-N"}, "OVCAR-8": {"test_system": "OVCAR-8"}, "NCI/ADR-RES": {"test_system": "NCI/ADR-RES"}, "SF-295": {"test_system": "SF-295"}, "A549": {"test_system": "A549"}, "LOX IMVI": {"test_system": "LOX IMVI"}, "UO-31": {"test_system": "UO-31"}, "HCT-116": {"test_system": "HCT-116"}, "KM12": {"test_system": "KM12"}, "UACC-62": {"test_system": "UACC-62"}, "SN12C": {"test_system": "SN12C"}, "HT-29": {"test_system": "HT-29"}, "PC-3": {"test_system": "PC-3"}, "SNB-75": {"test_system": "SNB-75"}, "SR": {"test_system": "SR"}, "CCRF-CEM": {"test_system": "CCRF-CEM"}, "K562": {"test_system": "K562"}, "ACHN": {"test_system": "ACHN"}, "CAKI-1": {"test_system": "CAKI-1"}, "COLO 205": {"test_system": "COLO 205"}, "SK-MEL-2": {"test_system": "SK-MEL-2"}, "RXF 393": {"test_system": "RXF 393"}, "MOLT-4": {"test_system": "MOLT-4"}, "786-0": {"test_system": "786-0"}, "SK-OV-3": {"test_system": "SK-OV-3"}, "HL-60": {"test_system": "HL-60"}, "MDA-MB-231": {"test_system": "MDA-MB-231"}, "HCC 2998": {"test_system": "HCC 2998"}, "RPMI-8226": {"test_system": "RPMI-8226"}, "NCI-H460": {"test_system": "NCI-H460"}, "NCI-H23": {"test_system": "NCI-H23"}, "Malme-3M": {"test_system": "Malme-3M"}, "OVCAR-4": {"test_system": "OVCAR-4"}, "HCT-15": {"test_system": "HCT-15"}, "SNB-19": {"test_system": "SNB-19"}, "SF-539": {"test_system": "SF-539"}, "OVCAR-5": {"test_system": "OVCAR-5"}, "HOP-92": {"test_system": "HOP-92"}, "MCF7": {"test_system": "MCF7"}, "HOP-62": {"test_system": "HOP-62"}, "TK-10": {"test_system": "TK-10"}, "T47D": {"test_system": "T47D"}, "SK-MEL-28": {"test_system": "SK-MEL-28"}, "U-251": {"test_system": "U-251"}, "SK-MEL-5": {"test_system": "SK-MEL-5"}, "DU-145": {"test_system": "DU-145"}, "M14": {"test_system": "M14"}, "MDA-MB-435": {"test_system": "MDA-MB-435"}},
  "note": "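96-well plates; 48 h exposure; 5 concentrations. Endpoints by linear interpolation between flanking doses. Not reached: highest tested concentration assigned. GI50 is the concentration that inhibits growth by half.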 Calls of active or inactive are those of the source. No stated cut-off is given here; in the data, active = GI50 up to about 1.1 µM and inactive = higher.",
  "data": [
    {"smiles": "CC(C)(C)c1cc2c(OC/C=C/c3ccccc3)c(c1)Cc1cc(C(C#N)(OC/C=C/c3ccccc3)OC/C=C/c3ccccc3)cc(c1OC/C=C\\c1ccccc1)Cc1cc(C(C)(C)C)cc(c1OC/C=C/c1ccccc1)Cc1cc(C(C#N)(OC/C=C\\c3ccccc3)OC/C=C/c3ccccc3)cc(c1OC/C=C\\c1ccccc1)C2", "note": "(centres undefined)", "values": [
      {"measurement": "GI50", "setting": "BT-549", "result": "> 100 µM (inactive)"},
      {"measurement": "GI50", "setting": "NCI-H226", "result": "> 100 µM (inactive)"},
      {"measurement": "GI50", "setting": "UACC-257", "result": "> 100 µM (inactive)"},
      {"measurement": "GI50", "setting": "A498", "result": "> 100 µM (inactive)"},
      {"measurement": "GI50", "setting": "IGROV-1", "result": "> 100 µM (inactive)"},
      {"measurement": "GI50", "setting": "OVCAR-3", "result": "> 100 µM (inactive)"},
      {"measurement": "GI50", "setting": "SW-620", "result": "> 100 µM (inactive)"},
      {"measurement": "GI50", "setting": "EKVX", "result": "> 100 µM (inactive)"},
      {"measurement": "GI50", "setting": "SF-268", "result": "> 100 µM (inactive)"},
      {"measurement": "GI50", "setting": "NCI-H522", "result": "> 100 µM (inactive)"},
      {"measurement": "GI50", "setting": "Hs-578T", "result": "> 100 µM (inactive)"},
      {"measurement": "GI50", "setting": "MDA-N", "result": "> 100 µM (inactive)"},
      {"measurement": "GI50", "setting": "OVCAR-8", "result": "> 100 µM (inactive)"},
      {"measurement": "GI50", "setting": "NCI/ADR-RES", "result": "> 100 µM (inactive)"},
      {"measurement": "GI50", "setting": "SF-295", "result": "> 100 µM (inactive)"},
      {"measurement": "GI50", "setting": "A549", "result": "> 100 µM (inactive)"},
      {"measurement": "GI50", "setting": "LOX IMVI", "result": "30.1 µM (inactive)"},
      {"measurement": "GI50", "setting": "UO-31", "result": "> 100 µM (inactive)"},
      {"measurement": "GI50", "setting": "HCT-116", "result": "> 100 µM (inactive)"},
      {"measurement": "GI50", "setting": "KM12", "result": "> 100 µM (inactive)"},
      {"measurement": "GI50", "setting": "UACC-62", "result": "> 100 µM (inactive)"},
      {"measurement": "GI50", "setting": "SN12C", "result": "> 100 µM (inactive)"},
      {"measurement": "GI50", "setting": "HT-29", "result": "> 100 µM (inactive)"},
      {"measurement": "GI50", "setting": "PC-3", "result": "> 100 µM (inactive)"},
      {"measurement": "GI50", "setting": "SNB-75", "result": "> 100 µM (inactive)"},
      {"measurement": "GI50", "setting": "SR", "result": "20.7 µM (inactive)"},
      {"measurement": "GI50", "setting": "CCRF-CEM", "result": "> 100 µM (inactive)"},
      {"measurement": "GI50", "setting": "K562", "result": "> 100 µM (inactive)"},
      {"measurement": "GI50", "setting": "ACHN", "result": "> 100 µM (inactive)"},
      {"measurement": "GI50", "setting": "CAKI-1", "result": "> 100 µM (inactive)"},
      {"measurement": "GI50", "setting": "COLO 205", "result": "> 100 µM (inactive)"},
      {"measurement": "GI50", "setting": "SK-MEL-2", "result": "> 100 µM (inactive)"},
      {"measurement": "GI50", "setting": "RXF 393", "result": "> 100 µM (inactive)"},
      {"measurement": "GI50", "setting": "MOLT-4", "result": "> 100 µM (inactive)"},
      {"measurement": "GI50", "setting": "786-0", "result": "> 100 µM (inactive)"},
      {"measurement": "GI50", "setting": "SK-OV-3", "result": "> 100 µM (inactive)"},
      {"measurement": "GI50", "setting": "HL-60", "result": "> 100 µM (inactive)"},
      {"measurement": "GI50", "setting": "MDA-MB-231", "result": "30.4 µM (inactive)"},
      {"measurement": "GI50", "setting": "HCC 2998", "result": "> 100 µM (inactive)"},
      {"measurement": "GI50", "setting": "RPMI-8226", "result": "> 100 µM (inactive)"},
      {"measurement": "GI50", "setting": "NCI-H460", "result": "> 100 µM (inactive)"},
      {"measurement": "GI50", "setting": "NCI-H23", "result": "> 100 µM (inactive)"},
      {"measurement": "GI50", "setting": "Malme-3M", "result": "83.4 µM (inactive)"},
      {"measurement": "GI50", "setting": "OVCAR-4", "result": "> 100 µM (inactive)"},
      {"measurement": "GI50", "setting": "HCT-15", "result": "> 100", "unit": "µM"},
      {"measurement": "GI50", "setting": "SNB-19", "result": "> 100 µM (inactive)"},
      {"measurement": "GI50", "setting": "SF-539", "result": "> 100 µM (inactive)"},
      {"measurement": "GI50", "setting": "OVCAR-5", "result": "> 100 µM (inactive)"},
      {"measurement": "GI50", "setting": "HOP-92", "result": "95.5 µM (inactive)"},
      {"measurement": "GI50", "setting": "MCF7", "result": "> 100 µM (inactive)"},
      {"measurement": "GI50", "setting": "HOP-62", "result": "> 100 µM (inactive)"},
      {"measurement": "GI50", "setting": "TK-10", "result": "1.95 µM (inactive)"},
      {"measurement": "GI50", "setting": "T47D", "result": "> 100 µM (inactive)"},
      {"measurement": "GI50", "setting": "SK-MEL-28", "result": "> 100 µM (inactive)"},
      {"measurement": "GI50", "setting": "U-251", "result": "> 100 µM (inactive)"},
      {"measurement": "GI50", "setting": "SK-MEL-5", "result": "> 100 µM (inactive)"},
      {"measurement": "GI50", "setting": "DU-145", "result": "> 100 µM (inactive)"},
      {"measurement": "GI50", "setting": "M14", "result": "36.6 µM (inactive)"},
      {"measurement": "GI50", "setting": "MDA-MB-435", "result": "> 100 µM (inactive)"}
    ]}
  ]
}
